What follows are compounds tested against T1, recombinant human GST-SYK (Homo sapiens, UniProt P43405) (assay: Homogeneous Time-Resolved Fluorescence (HTRF) assay for the recombinant human Syk enzyme). Conditions: HTRF assay, recombinant human GST-SYK; IC50 given as class symbols; read-out: rhSYK Activity.
T1 construct: purchased Carna Biosciences 08-176
Format: biochemical
Outline: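 Enzyme […], pH 7.5 Tris/tween/DTT buffer; 10 min preincubation with compound, RT. Start: 250 nM biotin-peptide, 25 μM ATP, 5 mM Mg; 45′ RT. Stop/detect: 40 mM EDTA, Eu-anti-pTyr, SA-APC; read 30 min later.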

SMILES | IC50 [µM]
CNC(=O)C1CCN(c2ccc(-c3cc(C)cc(Nc4nccc(C(F)(F)F)n4)c3)cn2)CC1 [Example 7.42, N-methyl-1-[5-(3-methyl-5-{[4-(trifluoromethyl)pyrimidin-2-yl]amino}phenyl)pyridin-2-yl]piperidine-4-carboxamide] | 0.1 to 1
Cc1cc(Nc2nccc(C(F)(F)F)n2)cc(-c2ccc(NCCC(N)=O)nc2)c1 [Example 7.43, N~3~-[5-(3-methyl-5-{[4-(trifluoromethyl)pyrimidin-2-yl]amino}phenyl)pyridin-2-yl]-beta-alaninamide] | < 0.1
CC(=O)N1CCN(c2ccc(-c3cc(C)cc(Nc4nccc(C(F)(F)F)n4)c3)cn2)CC1 [Example 7.45, N-{3-[6-(4-acetylpiperazin-1-yl)pyridin-3-yl]-5-methylphenyl}-4-(trifluoromethyl)pyrimidin-2-amine] | 0.1 to 1
Cc1cc(Nc2nccc(C(F)(F)F)n2)cc(-c2ccc(NC3COC3)nc2)c1 [Example 7.47, N-{3-methyl-5-[6-(oxetan-3-ylamino)pyridin-3-yl]phenyl}-4-(trifluoromethyl)pyrimidin-2-amine] | < 0.1
Cc1cc(Nc2nccc(C(F)(F)F)n2)cc(-c2ccc(N3CCN(S(C)(=O)=O)CC3)nc2)c1 [Example 7.48, N-(3-methyl-5-{6-[4-(methylsulfonyl)piperazin-1-yl]pyridin-3-yl}phenyl)-4-(trifluoromethyl)pyrimidin-2-amine] | 0.1 to 1
CCN1CCN(c2ccc(-c3cc(C)cc(Nc4nccc(C(F)(F)F)n4)c3)cn2)CC1 [Example 7.49, N-{3-[6-(4-ethylpiperazin-1-yl)pyridin-3-yl]-5-methylphenyl}-4-(trifluoromethyl)pyrimidin-2-amine] | 0.1 to 1
CC(=O)NCCN(C)c1ccc(-c2cc(C)cc(Nc3nccc(C(F)(F)F)n3)c2)cn1 [Example 7.50, N-(2-{methyl[5-(3-methyl-5-{[4-(trifluoromethyl)pyrimidin-2-yl]amino}phenyl)pyridin-2-yl]amino}ethyl)acetamide] | < 0.1
Cc1cc(Nc2nccc(C(F)(F)F)n2)cc(-c2ccc(N[C@@H]3CCC(=O)NC3)nc2)c1 [Example 7.51, (5R)-5-{[5-(3-methyl-5-{[4-(trifluoromethyl)pyrimidin-2-yl]amino}phenyl)pyridin-2-yl]amino}piperidin-2-one] | < 0.1
Cc1cc(Nc2nccc(C(F)(F)F)n2)cc(-c2ccc(N[C@H]3CCC(=O)NC3)nc2)c1 [Example 7.52, (5S)-5-{[5-(3-methyl-5-{[4-(trifluoromethyl)pyrimidin-2-yl]amino}phenyl)pyridin-2-yl]amino}piperidin-2-one] | < 0.1
Cc1cc(Nc2nccc(C(F)(F)F)n2)cc(-c2ccc(N3CCN(C)C(=O)C3C)nc2)c1 (stereo not shown) [Example 7.55, 1,3-dimethyl-4-[5-(3-methyl-5-{[4-(trifluoromethyl)pyrimidin-2-yl]amino}phenyl)pyridin-2-yl]piperazin-2-one] | < 0.1
Cc1cc(Nc2nccc(C(F)(F)F)n2)cc(-c2ccc(N3CCC(F)(F)CC3)nc2)c1 [Example 7.56, N-{3-[6-(4,4-difluoropiperidin-1-yl)pyridin-3-yl]-5-methylphenyl}-4-(trifluoromethyl)pyrimidin-2-amine] | 0.1 to 1
CC(=O)N1CCCN(c2ccc(-c3cc(C)cc(Nc4nccc(C(F)(F)F)n4)c3)cn2)CC1 [Example 7.59, N-{3-[6-(4-acetyl-1,4-diazepan-1-yl)pyridin-3-yl]-5-methylphenyl}-4-(trifluoromethyl)pyrimidin-2-amine] | < 0.1
CCCOC1CCCN(c2ccc(-c3cc(C)cc(Nc4nccc(C(F)(F)F)n4)c3)cn2)C1 (stereo not shown) [Example 7.63, N-{3-methyl-5-[6-(3-propoxypiperidin-1-yl)pyridin-3-yl]phenyl}-4-(trifluoromethyl)pyrimidin-2-amine] | 0.1 to 1
CNC(=O)C1CCCN1c1ccc(-c2cc(C)cc(Nc3nccc(C(F)(F)F)n3)c2)cn1 (stereo not shown) [Example 7.65, N-methyl-1-[5-(3-methyl-5-{[4-(trifluoromethyl)pyrimidin-2-yl]amino}phenyl)pyridin-2-yl)prolinamide] | 0.1 to 1
Cc1cc(Nc2nccc(C(F)(F)F)n2)cc(-c2ccc(NCC(=O)N(C)C)nc2)c1 [Example 7.66, N,N-dimethyl-N~2~-[5-(3-methyl-5-{[4-(trifluoromethyl)pyrimidin-2-yl]amino}phenyl)pyridin-2-yl]glycinamide] | < 0.1
Cc1cc(Nc2nccc(C(F)(F)F)n2)cc(-c2ccc(N3CCNC(=O)C3)nc2)c1 [Example 7.67, 4-[5-(3-methyl-5-{[4-(trifluoromethyl)pyrimidin-2-yl]amino}phenyl)pyridin-2-yl]piperazin-2-one] | < 0.1
Cc1cc(Nc2nccc(C(F)(F)F)n2)cc(-c2ccc(NC3(C(=O)O)CCNCC3)nc2)c1 [Example 7.72, 4-{[5-(3-methyl-5-{[4-(trifluoromethyl)pyrimidin-2-yl]amino}phenyl)pyridin-2-yl]amino}piperidine-4-carboxylic acid] | < 0.1

Results, then the compound that gave them:

IC50 [µM] | SMILES
0.1 to 1 | Cc1cc(Nc2nccc(C(F)(F)F)n2)cc(-c2ccc(N(C)CCC3OCCO3)nc2)c1 [Example 7.41, N-[3-(6-{[2-(1,3-dioxolan-2-yl)ethyl](methyl)amino}pyridin-3-yl)-5-methylphenyl]-4-(trifluoromethyl)pyrimidin-2-amine]
< 0.1 | Cc1cc(Nc2nccc(C(F)(F)F)n2)cc(-c2ccc(NCC(C)(C)O)nc2)c1 [Example 7.44, 2-methyl-1-{[5-(3-methyl-5-{[4-(trifluoromethyl)pyrimidin-2-yl]amino}phenyl)pyridin-2-yl]amino}propan-2-ol]
< 0.1 | Cc1cc(Nc2nccc(C(F)(F)F)n2)cc(-c2ccc(N3CCN(C)CC3)nc2)c1 [Example 7.46, N-{3-methyl-5-[6-(4-methylpiperazin-1-yl)pyridin-3-yl]phenyl}-4-(trifluoromethyl)pyrimidin-2-amine]
0.1 to 1 | Cc1cc(Nc2nccc(C(F)(F)F)n2)cc(-c2ccc(N3CCCC(F)(F)C3)nc2)c1 [Example 7.53, N-{3-[6-(3,3-difluoropiperidin-1-yl)pyridin-3-yl]-5-methylphenyl}-4-(trifluoromethyl)pyrimidin-2-amine]
0.1 to 1 | COCC1CCCN1c1ccc(-c2cc(C)cc(Nc3nccc(C(F)(F)F)n3)c2)cn1 (stereo not shown) [Example 7.54, N-(3-{6-[2-(methoxymethyl)pyrrolidin-1-yl]pyridin-3-yl}-5-methylphenyl)-4-(trifluoromethyl)pyrimidin-2-amine]
< 0.1 | Cc1cc(Nc2nccc(C(F)(F)F)n2)cc(-c2ccc(N3CCC[C@H]3C(N)=O)nc2)c1 [Example 7.57, 1-[5-(3-methyl-5-{[4-(trifluoromethyl)pyrimidin-2-yl]amino}phenyl)pyridin-2-yl]-L-prolinamide]
< 0.1 | Cc1cc(Nc2nccc(C(F)(F)F)n2)cc(-c2ccc(N3CC(C)NC(C)C3)nc2)c1 (stereo not shown) [Example 7.58, N-{3-[6-(3,5-dimethylpiperazin-1-yl)pyridin-3-yl]-5-methylphenyl}-4-(trifluoromethyl)pyrimidin-2-amine]
0.1 to 1 | CCCN1CCCN(c2ccc(-c3cc(C)cc(Nc4nccc(C(F)(F)F)n4)c3)cn2)CC1 [Example 7.60, N-{3-methyl-5-[6-(4-propyl-1,4-diazepan-1-yl)pyridin-3-yl]phenyl}-4-(trifluoromethyl)pyrimidin-2-amine]
0.1 to 1 | COCC1CCN(c2ccc(-c3cc(C)cc(Nc4nccc(C(F)(F)F)n4)c3)cn2)C1 (stereo not shown) [Example 7.61, N-(3-{6-[3-(methoxymethyl)pyrrolidin-1-yl]pyridin-3-yl}-5-methylphenyl)-4-(trifluoromethyl)pyrimidin-2-amine]
< 0.1 | CNC(=O)CCNc1ccc(-c2cc(C)cc(Nc3nccc(C(F)(F)F)n3)c2)cn1 [Example 7.62, N-methyl-N~3~-[5-(3-methyl-5-{[4-(trifluoromethyl)pyrimidin-2-yl]amino}phenyl)pyridin-2-yl]-beta-alaninamide]
< 0.1 | CC(=O)NCCCNc1ccc(-c2cc(C)cc(Nc3nccc(C(F)(F)F)n3)c2)cn1 [Example 7.64, N-(3-{[5-(3-methyl-5-{[4-(trifluoromethyl)pyrimidin-2-yl]amino}phenyl)pyridin-2-yl]amino}propyl)acetamide]
< 0.1 | Cc1cc(Nc2nccc(C(F)(F)F)n2)cc(-c2ccc(NC3CCNC3=O)nc2)c1 (stereo not shown) [Example 7.68, 3-{[5-(3-methyl-5-{[4-(trifluoromethyl)pyrimidin-2-yl]amino}phenyl)pyridin-2-yl]amino}pyrrolidin-2-one]
< 0.1 | Cc1cc(Nc2nccc(C(F)(F)F)n2)cc(-c2ccc(NC(CO)C(=O)O)nc2)c1 (stereo not shown) [Example 7.69, N-[5-(3-methyl-5-{[4-(trifluoromethyl)pyrimidin-2-yl]amino}phenyl)pyridin-2-yl]serine]
< 0.1 | Cc1cc(Nc2nccc(C(F)(F)F)n2)cc(-c2ccc(N[C@H](CC(C)C)C(=O)O)nc2)c1 [Example 7.70, N-[5-(3-methyl-5-{[4-(trifluoromethyl)pyrimidin-2-yl]amino}phenyl)pyridin-2-yl]-D-leucine]
< 0.1 | Cc1cc(Nc2nccc(C(F)(F)F)n2)cc(-c2ccc(N[C@@H](CCO)C(=O)O)nc2)c1 [Example 7.71, N-[5-(3-methyl-5-{[4-(trifluoromethyl)pyrimidin-2-yl]amino}phenyl)pyridin-2-yl]-L-homoserine]
< 0.1 | Cc1cc(Nc2nccc(C(F)(F)F)n2)cc(-c2ccc(N[C@H](Cc3c[nH]cn3)C(=O)O)nc2)c1 [Example 7.73, N-[5-(3-methyl-5-{[4-(trifluoromethyl)pyrimidin-2-yl]amino}phenyl)pyridin-2-yl]-D-histidine]

Same assay, conditions: recombinant GST-hSYK, 25 μM ATP, HTRF; read-out: IC50 (inhibition of human Syk activity)

IC50 [µM] | SMILES
0.7 | CCCOC1CCCN(c2ccc(-c3cc(C)cc(Nc4nccc(C(F)(F)F)n4)c3)cn2)C1 (stereo not shown) [Example 7.63, N-{3-methyl-5-[6-(3-propoxypiperidin-1-yl)pyridin-3-yl]phenyl}-4-(trifluoromethyl)pyrimidin-2-amine]

Source: patent publication US9376418B2, “Substituted pyridine spleen tyrosine kinase (SYK) inhibitors” (Merck Sharp & Dohme Corp., priority 2012, dated 2016)
